Results as given in the supplement of paper PMC10307832.

What was measured:
Assay in all cases: relative viability (nuclei count vs DMSO), 5 days (fraction); higher = more cells survive
[1] = tested on: BEN
Outline: (§1)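 Relative viability equals treated-well nuclei counts divided by vehicle-well nuclei counts. Counts came from 4× images of lung cancer cell lines grown in 1536-well plates for 5 days after pin-tool dosing on the day after seeding. Dosing used one drug alone or a fixed anchor-drug dose plus five library-drug doses (not always all listed) in √10 steps, and values are medians of duplicate plates.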

[2] = tested on: NCI-H1944
Outline: as §1

[3] = tested on: SK-MES-1
Outline: as §1

[4] = tested on: ChaGo-K-1
Outline: as §1

[5] = tested on: PC-3 [JPC-3]
Outline: as §1

[6] = tested on: NCI-H2342
Outline: as §1

[7] = tested on: NCI-H650
Outline: as §1

[8] = tested on: NCI-H358
Outline: as §1

[9] = tested on: UMC-11
Outline: as §1

[10] = tested on: NCI-H596
Outline: as §1

[11] = tested on: NCI-H661
Outline: as §1

[12] = tested on: LXF-289
Outline: as §1

[13] = tested on: NCI-H2087
Outline: as §1

[14] = tested on: HCC-15
Outline: as §1

[15] = tested on: H3255
Outline: as §1

[16] = tested on: NCI-H838
Outline: as §1

[17] = tested on: LU99A
Outline: as §1

[18] = tested on: LK-2
Outline: as §1

[19] = tested on: LC-2-ad
Outline: as §1

[20] = tested on: NCI-H1666
Outline: as §1

[21] = tested on: LCLC-97TM1
Outline: as §1

[22] = tested on: HCC-78
Outline: as §1

[23] = tested on: NCI-H322M
Outline: as §1

[24] = tested on: NCI-H1651
Outline: as §1

CC(C)Oc1cc(Nc2nc(N[C@@H](C)c3ccc(F)cn3)ncc2Cl)n[nH]1 [AZ23] + N=C(N)NC(=N)NCCc1ccccc1 [Phenformin] (partner 250 µM)
relative viability ([1]; first compound 0.01 µM): 0.292
relative viability ([1]; first compound 0.03162 µM): 0.282
relative viability ([1]; first compound 0.3162 µM): 0.268
relative viability ([2]; first compound 0.01 µM): 0.197
relative viability ([2]; first compound 0.03162 µM): 0.225
relative viability ([2]; first compound 0.3162 µM): 0.219
relative viability ([3]; first compound 0.03162 µM): 0.743
relative viability ([3]; first compound 0.3162 µM): 0.743
relative viability ([4]; first compound 0.01 µM): 0.497
relative viability ([4]; first compound 0.03162 µM): 0.458
relative viability ([4]; first compound 0.3162 µM): 0.529
relative viability ([5]; first compound 0.01 µM): 0.502
relative viability ([5]; first compound 0.03162 µM): 0.453
relative viability ([5]; first compound 0.3162 µM): 0.476
relative viability ([6]; first compound 0.01 µM): 0.683
relative viability ([6]; first compound 0.03162 µM): 0.634
relative viability ([6]; first compound 0.3162 µM): 0.564
relative viability ([7]; first compound 0.01 µM): 0.432
relative viability ([7]; first compound 0.03162 µM): 0.461
relative viability ([7]; first compound 0.3162 µM): 0.466
relative viability ([8]; first compound 0.01 µM): 0.369
relative viability ([8]; first compound 0.03162 µM): 0.347
relative viability ([8]; first compound 0.3162 µM): 0.348
relative viability ([9]; first compound 0.01 µM): 0.341
relative viability ([9]; first compound 0.03162 µM): 0.305
relative viability ([9]; first compound 0.3162 µM): 0.324
relative viability ([10]; first compound 0.01 µM): 0.787
relative viability ([10]; first compound 0.03162 µM): 0.87
relative viability ([10]; first compound 0.3162 µM): 0.739
relative viability ([11]; first compound 0.01 µM): 0.293
relative viability ([11]; first compound 0.03162 µM): 0.257
relative viability ([11]; first compound 0.3162 µM): 0.241
relative viability ([12]; first compound 0.01 µM): 0.591
relative viability ([12]; first compound 0.03162 µM): 0.512
relative viability ([12]; first compound 0.3162 µM): 0.533
relative viability ([13]; first compound 0.01 µM): 0.645
relative viability ([13]; first compound 0.03162 µM): 0.449
relative viability ([13]; first compound 0.3162 µM): 0.458
relative viability ([14]; first compound 0.01 µM): 0.555
relative viability ([14]; first compound 0.03162 µM): 0.537
relative viability ([14]; first compound 0.3162 µM): 0.494
relative viability ([15]; first compound 0.01 µM): 0.323
relative viability ([15]; first compound 0.03162 µM): 0.364
relative viability ([15]; first compound 0.3162 µM): 0.327
relative viability ([16]; first compound 0.01 µM): 0.546
relative viability ([16]; first compound 0.03162 µM): 0.586
relative viability ([16]; first compound 0.3162 µM): 0.597
relative viability ([17]; first compound 0.01 µM): 0.912
relative viability ([17]; first compound 0.03162 µM): 0.976
relative viability ([17]; first compound 0.3162 µM): 0.882
relative viability ([18]; first compound 0.01 µM): 0.303
relative viability ([18]; first compound 0.03162 µM): 0.401
relative viability ([18]; first compound 0.3162 µM): 0.311
relative viability ([19]; first compound 0.01 µM): 0.544
relative viability ([19]; first compound 0.03162 µM): 0.611
relative viability ([19]; first compound 0.3162 µM): 0.528
relative viability ([20]; first compound 0.01 µM): 0.566
relative viability ([20]; first compound 0.03162 µM): 0.802
relative viability ([20]; first compound 0.3162 µM): 0.538
relative viability ([21]; first compound 0.01 µM): 0.502
relative viability ([21]; first compound 0.03162 µM): 0.485
relative viability ([21]; first compound 0.3162 µM): 0.417
relative viability ([22]; first compound 0.01 µM): 0.692
relative viability ([22]; first compound 0.03162 µM): 0.656
relative viability ([22]; first compound 0.3162 µM): 0.583
relative viability ([23]; first compound 0.03162 µM): 0.903
relative viability ([23]; first compound 0.3162 µM): 0.785
relative viability ([24]; first compound 0.03162 µM): 0.332
relative viability ([24]; first compound 0.3162 µM): 0.356
